Source: PubChem BioAssay (NCI)
“And” between values parts separate entries of the source, which are not always exact repeats. Identical values can stand only once.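 Grown in 96-well plates, cells were treated for 48 hours with each compound at five concentrations. Insufficient inhibition: endpoint recorded as highest concentration tested. At the GI50, growth is halved. The concentration for full growth arrest is given as TGI.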

Experiments:
Test in all cases: inhibition of tumour cell growth, NCI panel, 48 h
NCI-H460 lung = test system: NCI-H460 lung
IGROV1 ovarian = test system: IGROV1 ovarian
OVCAR-8 ovarian = test system: OVCAR-8 ovarian
COLO 205 colon = test system: COLO 205 colon
TK-10 renal = test system: TK-10 renal
SNB-75 CNS = test system: SNB-75 CNS
KM12 colon = test system: KM12 colon
RXF 393 renal = test system: RXF 393 renal
SK-OV-3 ovarian = test system: SK-OV-3 ovarian
K-562 leukemia = test system: K-562 leukemia

O=C(/C=C/C12c3ccccc3C(c3ccccc31)C1C(=O)N(c3ccccc3)C(=O)C12)c1ccccc1 (stereo unspecified)
GI50 (NCI-H460 lung): 1.92 µM | TGI (NCI-H460 lung): 4.69 µM | GI50 (IGROV1 ovarian): 2.06 µM | TGI (IGROV1 ovarian): 6.05 µM | GI50 (OVCAR-8 ovarian): 1.79 µM | TGI (OVCAR-8 ovarian): > 100 µM | GI50 (COLO 205 colon): 2.11 µM | TGI (COLO 205 colon): 4.85 µM | GI50 (TK-10 renal): 6.22 µM | TGI (TK-10 renal): > 100 µM | GI50 (SNB-75 CNS): 2.39 µM | TGI (SNB-75 CNS): > 100 µM | GI50 (KM12 colon): 2.64 µM | TGI (KM12 colon): > 100 µM | GI50 (RXF 393 renal): 1.21 µM | TGI (RXF 393 renal): 2.82 µM | GI50 (SK-OV-3 ovarian): 28.3 µM | TGI (SK-OV-3 ovarian): > 100 µM | GI50 (K-562 leukemia): 1.39 µM | TGI (K-562 leukemia): > 100 µM

Cc1ccc(-c2cc(-c3ccco3)c(C#N)c(=O)[nH]2)cc1
TGI (NCI-H460 lung): > 100 µM | TGI (IGROV1 ovarian): > 100 µM | TGI (OVCAR-8 ovarian): > 100 µM | TGI (COLO 205 colon): > 100 µM | TGI (TK-10 renal): > 100 µM | TGI (SNB-75 CNS): > 100 µM | TGI (KM12 colon): > 100 µM | TGI (RXF 393 renal): > 100 µM | TGI (SK-OV-3 ovarian): 97.6 µM | TGI (K-562 leukemia): > 100 µM

O=C1c2ccc([N+](=O)[O-])cc2-c2c1c1ccccc1c(=O)n2CCCNCCCNCCCn1c2c(c3ccc([N+](=O)[O-])cc3c1=O)C(=O)c1ccccc1-2
GI50 (NCI-H460 lung): 2.34 µM | TGI (NCI-H460 lung): 14.6 µM | GI50 (IGROV1 ovarian): 2.43 µM | TGI (IGROV1 ovarian): 15.8 µM | GI50 (OVCAR-8 ovarian): 0.31 µM | TGI (OVCAR-8 ovarian): 2.32 µM | GI50 (COLO 205 colon): 1.33 µM | TGI (COLO 205 colon): 6.83 µM | GI50 (TK-10 renal): 5.32 µM | TGI (TK-10 renal): 33.9 µM | GI50 (SNB-75 CNS): 0.427 µM | TGI (SNB-75 CNS): 5.54 µM | GI50 (KM12 colon): 1.53 µM | TGI (KM12 colon): 4.31 µM | GI50 (RXF 393 renal): 5.51 µM | TGI (RXF 393 renal): 41 µM | GI50 (SK-OV-3 ovarian): 4.79 µM | TGI (SK-OV-3 ovarian): 19.2 µM | GI50 (K-562 leukemia): 0.539 µM | TGI (K-562 leukemia): 1.97 µM

COC[C@@H](N=CN1CCc2cc(OC)c(OC)cc2[C@@H]1C)C(C)(C)C
TGI (NCI-H460 lung): > 100 µM | TGI (IGROV1 ovarian): > 100 µM | TGI (OVCAR-8 ovarian): > 100 µM | TGI (COLO 205 colon): > 100 µM | TGI (TK-10 renal): > 100 µM | TGI (SNB-75 CNS): > 100 µM | TGI (KM12 colon): > 100 µM | TGI (RXF 393 renal): > 100 µM | TGI (SK-OV-3 ovarian): > 100 µM | TGI (K-562 leukemia): > 100 µM

CS(=O)(=O)OCCN1CCN(C(=O)c2cccc3c(Nc4ccc(S(=O)(=O)N=C(N)N)cc4)c4ccccc4nc23)CC1
TGI (NCI-H460 lung): > 100 µM | TGI (IGROV1 ovarian): > 100 µM | TGI (OVCAR-8 ovarian): > 100 µM | TGI (COLO 205 colon): > 100 µM | TGI (TK-10 renal): > 100 µM | TGI (SNB-75 CNS): > 100 µM | TGI (KM12 colon): > 100 µM | TGI (RXF 393 renal): > 100 µM | TGI (SK-OV-3 ovarian): > 100 µM | TGI (K-562 leukemia): > 100 µM

O=C(/C=C/c1ccccc1)CC1OC(=O)c2ccccc21 (stereo unspecified)
TGI (NCI-H460 lung): > 100 µM | TGI (IGROV1 ovarian): > 100 µM | TGI (OVCAR-8 ovarian): > 100 µM | TGI (COLO 205 colon): > 100 µM | TGI (TK-10 renal): > 100 µM | TGI (SNB-75 CNS): > 100 µM | TGI (KM12 colon): > 100 µM | TGI (RXF 393 renal): > 100 µM | TGI (SK-OV-3 ovarian): > 100 µM | TGI (K-562 leukemia): > 100 µM

COc1cc(/C=C2\CCC/C(=C\c3cc(OC)c(O)c(OC)c3)C2=O)cc(OC)c1O
TGI (NCI-H460 lung): 10.7 µM | TGI (IGROV1 ovarian): 3.89 µM | TGI (OVCAR-8 ovarian): 75 µM | TGI (COLO 205 colon): 73.8 µM and 32.8 µM | TGI (TK-10 renal): > 100 µM | TGI (SNB-75 CNS): > 100 µM | TGI (KM12 colon): 8.33 µM | TGI (RXF 393 renal): 3.22 µM | TGI (SK-OV-3 ovarian): > 100 µM | GI50 (K-562 leukemia): 2.26 µM | TGI (K-562 leukemia): 75 µM and > 100 µM

Nc1nc2c(c(=O)[nH]1)NC(CO)CN2 (stereo unspecified)
TGI (NCI-H460 lung): > 100 µM | TGI (IGROV1 ovarian): > 100 µM | TGI (OVCAR-8 ovarian): > 100 µM | TGI (COLO 205 colon): > 100 µM | TGI (TK-10 renal): > 100 µM | TGI (SNB-75 CNS): > 100 µM | TGI (KM12 colon): > 100 µM | TGI (RXF 393 renal): > 100 µM | TGI (SK-OV-3 ovarian): > 100 µM | TGI (K-562 leukemia): > 100 µM

COC(=O)C(C(=O)C(=O)Nc1ccc(C(F)(F)F)cc1[N+](=O)[O-])c1csc(-n2nc(-c3ccccc3)cc2-c2ccccc2)n1 (stereo unspecified)
TGI (NCI-H460 lung): > 100 µM | TGI (IGROV1 ovarian): > 100 µM | TGI (OVCAR-8 ovarian): > 100 µM | TGI (COLO 205 colon): > 100 µM | TGI (TK-10 renal): > 100 µM | TGI (SNB-75 CNS): > 100 µM | TGI (KM12 colon): > 100 µM | TGI (RXF 393 renal): > 100 µM | TGI (SK-OV-3 ovarian): > 100 µM | TGI (K-562 leukemia): > 100 µM

CC(=O)NNc1nc(C)c(C(=O)NNC(=O)C(=O)Nc2c(C)cccc2C)s1
TGI (NCI-H460 lung): > 100 µM | TGI (IGROV1 ovarian): > 100 µM | TGI (OVCAR-8 ovarian): 80.1 µM | TGI (COLO 205 colon): > 100 µM | TGI (TK-10 renal): > 100 µM | TGI (SNB-75 CNS): > 100 µM | TGI (KM12 colon): > 100 µM | TGI (RXF 393 renal): 88.2 µM | TGI (SK-OV-3 ovarian): > 100 µM | TGI (K-562 leukemia): > 100 µM
